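Each compound was tested at five concentrations against cells in 96-well plates for 48 hours. GI50 = concentration required for 50% inhibition of growth. TGI: concentration producing complete growth inhibition.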
What was measured:
Experiment in all cases: NCI anticancer screen, dose series, 48 h
SF-268 CNS = system: SF-268 CNS
SR leukemia = system: SR leukemia
NCI-H522 lung = system: NCI-H522 lung
MOLT-4 leukemia = system: MOLT-4 leukemia
HOP-62 NSCLC = system: HOP-62 NSCLC
SW-620 colon = system: SW-620 colon
LOX IMVI melanoma = system: LOX IMVI melanoma
HCT-116 colon = system: HCT-116 colon
OVCAR-8 ovarian = system: OVCAR-8 ovarian
NCI-H23 lung = system: NCI-H23 lung

SMILES	GI50 (SF-268 CNS)	TGI (SF-268 CNS)	GI50 (SR leukemia)	TGI (SR leukemia)	GI50 (NCI-H522 lung)	GI50 (MOLT-4 leukemia)	TGI (MOLT-4 leukemia)	GI50 (HOP-62 NSCLC)	TGI (HOP-62 NSCLC)	GI50 (SW-620 colon)	TGI (SW-620 colon)	GI50 (LOX IMVI melanoma)	TGI (LOX IMVI melanoma)	GI50 (HCT-116 colon)	TGI (HCT-116 colon)	GI50 (OVCAR-8 ovarian)	TGI (OVCAR-8 ovarian)	GI50 (NCI-H23 lung)	TGI (NCI-H23 lung)	TGI (NCI-H522 lung)
COc1ccc(C2=CC(c3ccc(OC)c(OC)c3)c3c(c4ccccc4oc3=O)O2)cc1OC (centres undefined)	3.46 µM	> 100 µM	0.498 µM	> 100 µM	1.44 µM	4.05 µM	> 100 µM	2.2 µM	> 100 µM	1.19 µM	> 100 µM	4.22 µM	> 100 µM	1.58 µM	> 59.6 µM	4.9 µM	> 100 µM	4.91 µM	> 100 µM	
O=C1OC(OCC#CCOC2OC(=O)C(Cl)=C2Cl)C(Cl)=C1Cl (centres undefined)		46.8 µM		4.99 µM			6.17 µM		26.7 µM		18.4 µM		11.1 µM		21.8 µM		20.8 µM		40.9 µM	3.72 µM
Clc1nc(Cl)c2ncn(Cc3ccc(Cn4cnc5c(Cl)nc(Cl)nc54)cc3)c2n1	3.4 µM	23.4 µM	0.287 µM	8.08 µM	5.65 µM	3.88 µM	16.1 µM	6.73 µM	21.5 µM		8.91 µM	0.96 µM	14.9 µM	0.852 µM	16.2 µM	10.4 µM	25 µM	2.02 µM	22.8 µM	25 µM
Cn1c(=O)c(Oc2ccc(F)cc2F)cc2cnc(NCCS(C)(=O)=O)nc21	> 25 µM	> 25 µM	> 25 µM	> 25 µM	> 25 µM	> 25 µM	> 25 µM	> 25 µM	> 25 µM	> 25 µM	> 25 µM	> 25 µM	> 25 µM	> 25 µM	> 25 µM	> 25 µM	> 25 µM	> 25 µM	> 25 µM	> 25 µM
CCn1c2ccccc2c2cc(C(O)c3cccc4ncccc34)ccc21 (centres undefined)	0.068 µM	> 73.6 µM	0.0248 µM		0.0212 µM	0.0633 µM	> 100 µM	0.0507 µM	> 73.3 µM	0.0399 µM	> 100 µM	0.0631 µM	13.4 µM	0.0441 µM	15.4 µM	0.122 µM	> 69.4 µM	0.0958 µM	19.5 µM	0.107 µM
COc1cc(/C=C/C(=O)c2cccnc2Nc2ccc(F)cc2)cc(OC)c1OC	4.18 µM	17.6 µM	1.93 µM	8.36 µM	2.69 µM	2.75 µM	9.52 µM	2.9 µM	7.82 µM	3.3 µM	24.1 µM	1.69 µM	3.59 µM	1.54 µM	2.96 µM	2.69 µM	13.4 µM	2.34 µM	7.77 µM	7.04 µM
COC(=O)C1=CC2OC1(C)CCC2=O (centres undefined)		> 100 µM		> 100 µM			> 100 µM		> 100 µM		> 100 µM		> 100 µM		> 100 µM		> 100 µM		> 100 µM	> 100 µM
Cc1cc(OCc2nnc3n2N=C(c2ccc(Cl)cc2Cl)CS3)ccc1Cl	73.4 µM	> 100 µM	43.3 µM	> 100 µM	22.6 µM	47.7 µM	> 100 µM	> 100 µM	> 100 µM	> 100 µM	> 100 µM	36.3 µM	> 100 µM	53 µM	> 100 µM	45 µM	> 100 µM	61 µM	> 100 µM	65 µM
COc1ccc2c(c1OC)C(=O)c1cnccc1C2=O				> 100 µM			> 100 µM		> 100 µM		> 100 µM		> 100 µM		> 100 µM		> 100 µM		> 100 µM	> 100 µM
c1ccc(CNc2nc(Nc3ccccc3)nc3ccccc23)cc1	3.01 µM	9.3 µM	2.28 µM	6.07 µM	1.45 µM	2.21 µM	5.37 µM	2.3 µM	5.17 µM			1.88 µM	3.4 µM	1.71 µM	3.3 µM	1.99 µM	5.09 µM	2.17 µM	9.25 µM	3.23 µM

— PubChem BioAssay (NCI)
